In patent publication US20260049089A1, “KRAS INHIBITOR COMPOUND” (SHANGHAI APEIRON THERAPEUTICS COMPANY LIMITED, priority 2022, published 2026):
“And” between values parts separate entries of the source, which are not always exact repeats. Equal values may be shown once. Read-outs that look alike come from different tables or passages of the source.

Legend:
Format in all cases: cell-based
[1] = test system: AGS cells; assay: 3D cell proliferation assay (CellTiter-Glo 3D), AGS; settings: 5 days, read-out: 3D Proliferation Inhibition AGS_IC50
Description: (§1) Using a nanoliter liquid handling system (LABCYTE, P-0200), the diluted test compounds were added to a 384-well low-adsorption cell culture plate. Cells were seeded into the wells, and the plate was placed in an incubator at 37° C. with 5% CO2. After co-incubating the compounds and cells for 5 days, CellTiter-Glo® 3D reagent was added. Luminescence values were measured using an EnVision Multilabel Plate Reader (luminescence is proportional to the ATP content in the system, and ATP content directly reflects the number of viable cells). Finally, the IC50 values (half-maximal inhibitory concentrations) of the compounds were determined using non-linear fitting equations in XLFit software with the following parameters: […]
(§2) X: Logarithm of compound concentration • Y: Inhibition rate (%)
(§3) [formula] • Negative control: DMSO • Positive control: Medium only

[2] = test system: pERK in AGS cells; assay: ERK phosphorylation cell assay, AGS; settings: 3 hours compound incubation, read-out: pERK AGS_IC50
Description: (§4) • Day 1: AGS cells were seeded into a 384-well cell culture plate and incubated overnight at 37° C. with 5% CO2 in a cell culture incubator. • Day 2: Compounds were added to the plate using an Echo550 liquid handler, followed by incubation at 37° C. with 5% CO2 in a cell culture incubator for 3 hours. Subsequently, the cells were fixed with paraformaldehyde, permeabilized with methanol, and blocked with blocking buffer. A primary antibody mixture (rabbit anti-pERK, mouse anti-GAPDH) was added, and the plate was incubated overnight at 4° C. • Day 3: The primary antibodies were removed, and a secondary antibody mixture (goat anti-rabbit 800CW, goat anti-mouse 680RD) was added. The plate was incubated at room temperature in the dark. After three washes with PBST, the plate was inverted and centrifuged for 1 minute. Fluorescence signal values were read using an Odyssey CLx imaging system.
(§5) [formula] • Negative control: DMSO • Positive control: 10 μM Reference • Fitted using XLFit 5.0 with the following parameters:
(§6) [formula] • X: Log of compound concentration • Y: Mean relative expression levels of p-ERK across replicates

[3] = test system: pERK in AsPC-1 cells; assay: ERK phosphorylation cell assay, AsPC-1; settings: read-out: pERK AsPC-1_IC50
Description: [Worded in the source for another cell line; this cell line is reported under the same test.] as §4, §5, §6

[4] = test system: AsPC-1 cells; assay: 3D cell proliferation assay (CellTiter-Glo 3D), AsPC-1; settings: 5 days, read-out: 3D Proliferation Inhibition AsPC-1_IC50
Description: as §1, §2, §3

[5] = Homo sapiens, ASPC1, AsPC-1 cells

IC50 ([1]; Homo sapiens, AGS, 120 h)	IC50 ([2]; Homo sapiens, AGS, 3 h)	IC50 [3, 5]	IC50 ([4]; Homo sapiens, ASPC1, 120 h)	IC50 [4]	IC50 [1]	IC50 [2]	IC50 ([3]; AsPC-1 cells)	Structure (SMILES)
2310 nM	> 10000 nM	> 10000 nM		1490 nM				C[C@@]1(O)CCCN(c2nc(OCC3(N4CCOCC4)CC3)nc3c(F)c4c(cc23)NCCCCCc2c(F)ccc3cc(O)cc-4c23)C1 (single isomer, unassigned) [Example 33A]
				3550 nM	3360 nM	> 10000 nM	> 10000 nM	CN1CCC[C@H]1COc1nc(N2CCC[C@@](C)(O)C2)c2cc3c(c(F)c2n1)-c1cc(O)cc2ccc(F)c(c12)CCCCCN3 (single isomer, unassigned) [Example 28B]
508 nM			847 nM			91 nM	352 nM	C[C@@]1(O)CCCN(c2nc(OCC34CCCN3C[C@]3(C4)CC3(F)F)nc3c(F)c4c(cc23)NCCCCCc2c(F)ccc3cc(O)cc-4c23)C1 (single isomer, unassigned) [Example 24A]
> 10000 nM			> 10000 nM			> 10000 nM	> 10000 nM	C[C@@]1(O)CCCN(c2nc(OC[C@@]34CCCN3C[C@H](F)C4)nc3c(F)c4c(cc23)NCCOCCc2c(F)ccc3cccc-4c23)C1 (single isomer, unassigned) [Example 52B]

The next lines start with the compound.

Structure (SMILES)	IC50 ([1]; Homo sapiens, AGS, 120 h)	IC50 ([2]; Homo sapiens, AGS, 3 h)	IC50 [3, 5]	IC50 ([4]; Homo sapiens, ASPC1, 120 h)	IC50 [4]	IC50 [1]	IC50 [2]	IC50 ([3]; AsPC-1 cells)
C=C1CN2CCCC2(COc2nc(N3CCC[C@@](C)(O)C3)c3cc4c(c(F)c3n2)-c2cc(O)cc3ccc(F)c(c23)CCOCCN4C)C1 (stereo partly drawn) [Example 48]	7.4 nM	3.3 nM	17 nM	42 nM				
C=C1CN2CCC[C@@]2(COc2nc(N3CCC[C@@](C)(O)C3)c3cc4c(c(F)c3n2)-c2cc(O)cc3ccc(F)c(c23)CCOCCN4)C1 (single isomer, unassigned) [Example 42B]					341 nM	61 nM	12 nM	74 nM
CN1CC(F)(F)C[C@H]1COc1nc(N2CCC[C@@](C)(O)C2)c2cc3c(c(F)c2n1)-c1cc(O)cc2ccc(F)c(c12)CCCCCN3 [Example 34, 13-(((S)-4,4-difluoro-1-methylpyrrolidin-2-yl)methoxy)-3,15-difluoro-11-((R)-3-hydroxy-3-methylpiperidin-1-yl)-4,5,6,7,8,9-hexahydro-naphtho[1′,8′:4,5,6][1]azacycloundecino[2,3-g]quinazoline-17-ol]	3660 nM	8960 nM	> 10000 nM	3350 nM				
O=C1CCCCCc2c(F)ccc3cc(O)cc(c23)-c2c(cc3c(N4CC5CCC(C4)N5)nc(OC[C@@]45CCCN4C[C@H](F)C5)nc3c2F)N1 [Example 9, 12-((1R,5S)-3,8-diazabicyclo[3.2.1]octan-3-yl)-3,16-difluoro-14-(((2R,7aS)-2-fluorotetrahydro-1H-pyrazin-7a(5H)-yl)methoxy)-18-hydroxy-5,6,7,8-tetrahydro-4H-naphtho[1′,8′:4,5,6][1]azacyclododecino[2,3-g]quinazolin-9(10H)-one]	51 nM				613 nM		18 nM	118 nM
C[C@@]1(O)CCCN(c2nc(OCC34CCCN3CCC4)nc3c(F)c4c(cc23)NCCCCCc2c(F)ccc3cc(O)cc-4c23)C1 (single isomer, unassigned) [Example 21A]	226 nM			2630 nM			93 nM and 99 nM	938 nM and 721 nM
CN1CCOCCc2c(F)ccc3cc(O)cc(c23)-c2c1cc1c(N3CCC[C@@](C)(O)C3)nc(OC[C@@]34CCCN3C[C@H](F)C4)nc1c2F [Example 47, 3,15-difluoro-13-(((2R,7aS)-2-fluorotetrahydro-1H-pyrazin-7a(5H)-yl)methoxy)-11-((R)-3-hydroxy-3-methylpiperidin-1-yl)-9-methyl-4,5,8,9-tetrahydro-7H-naphtho[1′,8′:7,8,9][1]oxa[4]azacycloundeca[5,6-g]quinazoline-17-ol]					28 nM	8.8 nM	2.7 nM	7.9 nM
C=C1CN2CCC[C@@]2(COc2nc(N3CCC[C@@](C)(O)C3)c3cc4c(c(F)c3n2)-c2cc(O)cc3ccc(F)c(c23)CCOCCN4)C1 (single isomer, unassigned) [Example 42A]					456 nM	125 nM	26 nM	134 nM
Oc1cc2c3c(c(F)ccc3c1)CCCCCCNc1cc3c(N4CC5CCC(C4)N5)nc(OC[C@@]45CCCN4C[C@H](F)C5)nc3c(F)c1-2 [Example 8]	255 nM	73 nM	278 nM	682 nM				
CN1CCCCc2c(F)ccc3cc(O)cc(c23)-c2c1cc1c(N3CC4CCC(C3)N4)nc(OC[C@@]34CCCN3C[C@H](F)C4)nc1c2F [Example 3, 10-((1R,5S)-3,8-Diazabicyclo[3.2.1]octan-3-yl)-3,14-difluoro-12-(((2R,7aS)-2-fluorotetrahydro-1H-pyrazin-7a(5H)-yl)methoxy)-8-methyl-5,6,7,8-tetrahydro-4H-naphtho[1′,8′:4,5,6]acridin[2,3-g]quinazolin-16-ol]	329 nM	47 nM	104 nM	393 nM				
C=C1CN2CCCC2(COc2nc(N3CCC[C@@](C)(O)C3)c3cc4c(c(F)c3n2)-c2cc(N)cc3ccc(F)c(c23)CCCCCN4)C1 (stereo partly drawn) [Example 40, (3R)-1-(17-amino-3,15-difluoro-13-((2-methylenetetrahydro-1H-pyrazin-7a(5H)-yl)methoxy)-4,5,6,7,8,9-hexahydronaphtho[1′,8′:4,5,6][1]azacycloundecano[2,3-g]quinazolin-11-yl)-3-methylpiperidin-3-ol]	2050 nM	9110 nM	> 10000 nM	2170 nM				
C=C1CN2CCCC2(COc2nc(N3CCC[C@@](C)(O)C3)c3cc4c(c(F)c3n2)-c2cc(O)cc3ccc(F)c(c23)CCCCCN4C)C1 (single isomer, unassigned) [Example 22B]					1790 nM	553 nM	430 nM	898 nM
C=C1CN2CCCC2(COc2nc(N3CCC[C@@](C)(O)C3)c3cc4c(c(F)c3n2)-c2cc(O)cc3ccc(F)c(c23)CCCCCN4C)C1 (single isomer, unassigned) [Example 22A]					166 nM	90 nM	26 nM	85 nM
C=C1CN2CCC[C@@]2(COc2nc(N3CCC[C@@](C)(O)C3)c3cc4c(c(F)c3n2)-c2cccc3ccc(F)c(c23)CCOCCN4C)C1 [Example 54, (R)-1-(3,15-difluoro-9-methyl-13-(((S)-2-methylenetetrahydro-1H-pyrazin-7a(5H)-yl)methoxy)-4,5,8,9-tetrahydro-7H-naphtho[1′,8′:7,8,9][1]oxa[4]azacycloundeca[5,6-g]quinazoline-11-yl)-3-methylpiperidin-3-ol]	885 nM	659 nM	892 nM	1260 nM				
C=C1CN2CCC[C@@]2(COc2nc(N3CCC[C@@](C)(O)C3)c3cc4c(c(F)c3n2)-c2cc(N)cc3ccc(F)c(c23)CCOCCN4C)C1 [Example 56, (R)-1-(17-amino-3,15-difluoro-9-methyl-13-(((S)-2-methylenetetrahydro-1H-pyrazin-7a(5H)-yl)methoxy)-4,5,8,9-tetrahydro-7H-naphtho[1′,8′:7,8,9][1]oxa[4]azacycloundeca[5,6-g]quinazoline-11-yl)-3-methylpiperidin-3-ol]	668 nM	206 nM	707 nM	1460 nM				
C[C@@]1(O)CCCN(c2nc(OCC34CCCN3CC(=CF)C4)nc3c(F)c4c(cc23)NCCCCCc2c(F)ccc3cc(O)cc-4c23)C1 (stereo partly drawn) [Example 30]	177 nM	55 nM	171 nM	534 nM				
C[C@@]1(O)CCCN(c2nc(OCC34CCCN3CC(F)(F)C4)nc3c(F)c4c(cc23)NCCCCCc2c(F)ccc3cc(O)cc-4c23)C1 (stereo partly drawn) [Example 36]	1880 nM	1390 nM	3910 nM	2480 nM				
Oc1cc2c3c(c(F)ccc3c1)CCCCCNc1cc3c(N4CC5CCC(C4)N5)nc(OC[C@@]45CCCN4C[C@H](F)C5)nc3c(F)c1-2 [Example 5, 11-((1R,5S)-3,8-Diazabicyclo[3.2.1]octane-3-yl)-3,15-difluoro-13-(((2R,7aS)-2-fluorotetrahydro-1H-pyrrolin-7a(5H)-yl)methoxy)-4,5,6,7,8,9-hexahydro-naphtho[1′,8′:4,5,6][1]azacycloundecino[2,3-g]quinazolin-17-ol]	128 nM	12 nM	41 nM	196 nM				
